Measured values as given in ChEMBL document CHEMBL1201862, “PubChem BioAssay data set” (2004).
Calls of active or inactive are those of the source.

Tests used:
[1] = biological target: T1, DNA repair and recombination protein RAD54-like (Homo sapiens, UniProt Q92698); assay: inhibitors of human RAD54 branch migration, confirmation, biochemical, fluorescence, cherry-picked samples, dose series (AID 651657); assay type: functional
T1 sequence (Q92698 whole entry): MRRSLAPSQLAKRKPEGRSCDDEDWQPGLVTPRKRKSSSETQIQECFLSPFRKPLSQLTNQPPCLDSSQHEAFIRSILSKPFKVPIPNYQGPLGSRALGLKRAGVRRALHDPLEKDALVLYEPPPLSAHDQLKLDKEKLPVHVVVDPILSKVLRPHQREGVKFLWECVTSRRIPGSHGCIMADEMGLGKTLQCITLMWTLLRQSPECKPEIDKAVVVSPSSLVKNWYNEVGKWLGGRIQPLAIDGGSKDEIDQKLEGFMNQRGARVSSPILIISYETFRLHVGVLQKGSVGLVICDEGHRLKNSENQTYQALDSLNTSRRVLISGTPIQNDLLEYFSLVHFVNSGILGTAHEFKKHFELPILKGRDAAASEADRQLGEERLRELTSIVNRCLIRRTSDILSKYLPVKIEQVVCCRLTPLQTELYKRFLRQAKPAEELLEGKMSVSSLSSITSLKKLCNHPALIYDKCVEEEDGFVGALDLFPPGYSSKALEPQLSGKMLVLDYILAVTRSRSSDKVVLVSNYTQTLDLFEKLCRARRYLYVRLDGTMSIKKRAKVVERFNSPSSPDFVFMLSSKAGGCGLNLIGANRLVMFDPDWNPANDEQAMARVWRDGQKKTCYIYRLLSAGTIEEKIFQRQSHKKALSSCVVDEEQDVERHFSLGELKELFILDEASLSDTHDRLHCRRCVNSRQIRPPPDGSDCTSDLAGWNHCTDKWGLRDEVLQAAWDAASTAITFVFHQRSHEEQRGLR

[2] = biological target: T2, DNA repair protein RAD52 homolog (Homo sapiens, UniProt P43351); assay type: functional, biochemical
T2 sequence (P43351 whole entry): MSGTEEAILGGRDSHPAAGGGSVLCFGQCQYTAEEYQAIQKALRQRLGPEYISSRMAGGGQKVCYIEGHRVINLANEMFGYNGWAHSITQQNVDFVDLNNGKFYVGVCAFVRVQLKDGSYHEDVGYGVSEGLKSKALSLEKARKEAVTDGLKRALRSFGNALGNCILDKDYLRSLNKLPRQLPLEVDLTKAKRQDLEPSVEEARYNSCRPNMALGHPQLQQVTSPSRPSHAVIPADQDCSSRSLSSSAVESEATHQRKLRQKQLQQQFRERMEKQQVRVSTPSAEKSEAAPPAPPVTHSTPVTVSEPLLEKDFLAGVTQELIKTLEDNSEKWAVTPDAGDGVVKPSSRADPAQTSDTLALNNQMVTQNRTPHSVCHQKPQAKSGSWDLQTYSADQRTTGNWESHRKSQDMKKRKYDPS

[3] = cells; assay type: functional, cell-based
[4] = cells; assay type: functional, cell-based; remark: listed apart in the source
[5] = biological target: T3, Heat shock factor protein 1 (Mus musculus, UniProt P38532); assay: HSF1 potentiators in luciferase reporter cells, confirmation, cell-based, NIH3T3, luminescence, dose retest (AID 435004); assay type: functional;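 also: stress induced by proteasome inhibitor MG132 added 30 min after compound; luciferase reporter driven by HSF1 response element in NIH3T3 cells; actives raise luminescence as potentiators of the MG132 stress response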
T3 sequence (P38532 whole entry): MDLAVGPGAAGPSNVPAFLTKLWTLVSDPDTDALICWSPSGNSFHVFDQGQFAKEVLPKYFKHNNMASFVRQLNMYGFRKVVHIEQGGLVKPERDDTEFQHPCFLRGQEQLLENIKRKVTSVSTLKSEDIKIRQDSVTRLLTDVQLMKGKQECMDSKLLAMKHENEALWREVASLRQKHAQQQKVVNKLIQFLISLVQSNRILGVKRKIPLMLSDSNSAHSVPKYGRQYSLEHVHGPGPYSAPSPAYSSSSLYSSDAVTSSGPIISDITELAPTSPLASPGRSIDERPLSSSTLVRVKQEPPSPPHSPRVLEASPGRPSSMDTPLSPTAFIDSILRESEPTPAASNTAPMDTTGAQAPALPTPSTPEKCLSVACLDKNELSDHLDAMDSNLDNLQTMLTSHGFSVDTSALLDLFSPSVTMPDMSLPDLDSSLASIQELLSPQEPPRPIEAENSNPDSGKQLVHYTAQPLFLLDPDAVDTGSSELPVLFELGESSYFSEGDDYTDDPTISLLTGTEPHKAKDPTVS

[6] = biological target: Nuclear receptor subfamily 5 group A member 2 (Homo sapiens, UniProt O00482); assay type: functional, cell-based;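 also: HEK293T cells transfected with LRH-1 and a StAR promoter luciferase reporter; potency for inhibitors that lower LRH-1 driven reporter light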
Sequence of Nuclear receptor subfamily 5 group A member 2 (O00482 whole entry): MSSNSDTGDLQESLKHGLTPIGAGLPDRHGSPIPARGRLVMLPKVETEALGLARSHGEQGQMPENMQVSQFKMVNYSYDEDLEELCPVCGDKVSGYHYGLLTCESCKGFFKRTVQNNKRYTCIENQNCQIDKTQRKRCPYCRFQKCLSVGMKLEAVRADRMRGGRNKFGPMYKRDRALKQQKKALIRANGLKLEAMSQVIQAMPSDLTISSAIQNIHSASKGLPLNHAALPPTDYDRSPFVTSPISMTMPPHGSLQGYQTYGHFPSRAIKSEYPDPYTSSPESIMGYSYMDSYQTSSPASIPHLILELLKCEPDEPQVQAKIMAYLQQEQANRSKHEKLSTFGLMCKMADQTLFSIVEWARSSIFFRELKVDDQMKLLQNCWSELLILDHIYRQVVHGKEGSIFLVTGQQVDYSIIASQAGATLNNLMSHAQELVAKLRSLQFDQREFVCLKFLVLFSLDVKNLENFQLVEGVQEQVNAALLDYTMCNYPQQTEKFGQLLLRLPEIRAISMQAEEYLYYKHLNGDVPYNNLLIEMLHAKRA

[7] = biological target: Steroidogenic factor 1 (Homo sapiens, UniProt Q13285); assay: Counterscreen for inverse agonists of the liver receptor homolog-1 (LRH-1; NR5A2): Luminescence-based cell-based high throughput dose response assay to identify inverse agonists of the Steroidogenic Factor 1 Nuclear Receptor (SF1; NR5A1).; assay type: functional
Sequence of Steroidogenic factor 1 (Q13285 whole entry): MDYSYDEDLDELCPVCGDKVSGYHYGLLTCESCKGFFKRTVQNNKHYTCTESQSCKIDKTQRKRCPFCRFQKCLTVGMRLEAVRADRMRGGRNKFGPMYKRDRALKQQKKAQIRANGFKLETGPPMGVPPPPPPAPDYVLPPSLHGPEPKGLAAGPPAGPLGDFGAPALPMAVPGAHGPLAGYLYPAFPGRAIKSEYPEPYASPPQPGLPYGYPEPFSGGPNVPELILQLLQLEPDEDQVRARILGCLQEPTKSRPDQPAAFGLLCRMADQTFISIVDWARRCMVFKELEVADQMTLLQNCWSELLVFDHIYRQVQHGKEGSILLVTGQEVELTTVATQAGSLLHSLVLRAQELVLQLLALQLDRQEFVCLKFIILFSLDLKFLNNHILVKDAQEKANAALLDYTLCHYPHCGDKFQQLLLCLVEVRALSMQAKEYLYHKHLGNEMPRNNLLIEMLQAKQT

[8] = StAR promoter reporter inhibition counter-screen, dose response, counter-screen for LRH-1 inverse agonist project, cell-based, luminescence, luciferase reporter (AID 651969); assay type: functional
[9] = HeLa cell cytotoxicity, dose response, cytotoxicity control for MgcRacGAP inhibitor project (AID 624300); assay type: functional
[10] = biological target: T4, Rac GTPase-activating protein 1 (Homo sapiens, UniProt Q9H0H5); assay: MgcRacGAP GTPase-activating activity inhibitors, confirmation, biochemical, ADP Hunter fluorescence, primary and confirmatory (AID 624330); assay type: functional
T4 sequence (Q9H0H5 whole entry): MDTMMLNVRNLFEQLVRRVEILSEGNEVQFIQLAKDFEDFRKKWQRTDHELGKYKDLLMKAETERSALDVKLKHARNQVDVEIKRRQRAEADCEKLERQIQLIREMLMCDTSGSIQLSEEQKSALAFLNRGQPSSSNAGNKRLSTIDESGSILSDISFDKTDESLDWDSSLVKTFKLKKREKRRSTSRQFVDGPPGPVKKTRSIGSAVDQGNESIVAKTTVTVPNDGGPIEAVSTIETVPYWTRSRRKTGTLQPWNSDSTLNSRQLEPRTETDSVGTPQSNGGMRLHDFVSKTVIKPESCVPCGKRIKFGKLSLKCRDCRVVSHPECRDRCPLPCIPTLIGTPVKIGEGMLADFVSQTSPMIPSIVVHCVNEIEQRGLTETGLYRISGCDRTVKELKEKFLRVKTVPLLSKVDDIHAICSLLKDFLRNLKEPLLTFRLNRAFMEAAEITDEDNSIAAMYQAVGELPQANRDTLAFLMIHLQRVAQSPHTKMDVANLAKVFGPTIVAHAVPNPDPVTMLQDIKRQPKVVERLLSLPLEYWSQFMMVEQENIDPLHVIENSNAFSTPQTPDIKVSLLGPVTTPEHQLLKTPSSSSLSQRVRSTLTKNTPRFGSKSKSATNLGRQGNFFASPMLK

[11] = inhibitors of firefly luciferase expression or activity, dose response, H4 neuroglioma cells, luminescence (AID 1990); assay type: functional, cell-based
[12] = Luminescence Cell-Based Dose Response HTS to Identify Inhibitors of 5'UTR Stem-Loop Driven Prion Protein mRNA Translation in H4 Neuroglioblastoma Cells. [Related pubchem assays: 1827 (Project Summary), 1813 (Primary HTS)]; assay type: functional
[13] = inhibitors of SNCA 5'UTR-driven reporter translation, confirmation, H4 neuroglioma cells, luminescence (AID 1988); assay type: functional, cell-based
[14] = miR-122 activators in hepatoma reporter cells, dose response, cell-based, Huh7 psiCHECK-miR122, Renilla luciferase, cherry-picked (AID 651956); assay type: functional;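 also: huh7 hepatoma cells stably carrying a psiCHECK-2 miR-122 sensor plasmid; renilla luciferase signal reporting endogenous miR-122 activity after 48 h compound exposure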
[15] = HEK293T cytotoxicity, dose response, cytotoxicity control for miR-122 modulator project, cell-based, inhibitor set, cherry-pick, set 2 (AID 720697); assay type: functional
[16] = biological target: Glucose-6-phosphate 1-dehydrogenase (Homo sapiens, UniProt P11413); assay: human G6PD enzyme inhibitors, dose response, selectivity assay for P. falciparum G6PD inhibitor project, biochemical, fluorescence (AID 504792); assay type: functional
Sequence of Glucose-6-phosphate 1-dehydrogenase (P11413 whole entry): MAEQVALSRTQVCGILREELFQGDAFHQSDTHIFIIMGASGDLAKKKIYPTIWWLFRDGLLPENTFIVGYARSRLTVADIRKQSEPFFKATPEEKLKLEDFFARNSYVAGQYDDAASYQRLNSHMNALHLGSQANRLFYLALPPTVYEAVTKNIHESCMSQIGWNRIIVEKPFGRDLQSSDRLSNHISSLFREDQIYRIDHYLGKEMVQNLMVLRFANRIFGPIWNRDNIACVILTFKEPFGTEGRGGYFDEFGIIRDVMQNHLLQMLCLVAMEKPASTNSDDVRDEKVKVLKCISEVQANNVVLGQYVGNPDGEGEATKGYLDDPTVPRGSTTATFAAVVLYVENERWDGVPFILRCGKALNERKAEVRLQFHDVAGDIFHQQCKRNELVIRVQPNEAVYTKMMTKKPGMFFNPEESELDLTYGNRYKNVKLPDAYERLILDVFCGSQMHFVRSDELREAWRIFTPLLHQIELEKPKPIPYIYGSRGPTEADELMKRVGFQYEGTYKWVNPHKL

[17] = biological target: T5, Tyrosine-protein phosphatase non-receptor type 11 (Homo sapiens, UniProt Q06124); assay: SHP2 phosphatase inhibition, dose response, selectivity assay for STEP inhibitor project, biochemical (AID 602367); assay type: functional; conditions: read-out: IC50_Mean
T5 sequence (Q06124 whole entry): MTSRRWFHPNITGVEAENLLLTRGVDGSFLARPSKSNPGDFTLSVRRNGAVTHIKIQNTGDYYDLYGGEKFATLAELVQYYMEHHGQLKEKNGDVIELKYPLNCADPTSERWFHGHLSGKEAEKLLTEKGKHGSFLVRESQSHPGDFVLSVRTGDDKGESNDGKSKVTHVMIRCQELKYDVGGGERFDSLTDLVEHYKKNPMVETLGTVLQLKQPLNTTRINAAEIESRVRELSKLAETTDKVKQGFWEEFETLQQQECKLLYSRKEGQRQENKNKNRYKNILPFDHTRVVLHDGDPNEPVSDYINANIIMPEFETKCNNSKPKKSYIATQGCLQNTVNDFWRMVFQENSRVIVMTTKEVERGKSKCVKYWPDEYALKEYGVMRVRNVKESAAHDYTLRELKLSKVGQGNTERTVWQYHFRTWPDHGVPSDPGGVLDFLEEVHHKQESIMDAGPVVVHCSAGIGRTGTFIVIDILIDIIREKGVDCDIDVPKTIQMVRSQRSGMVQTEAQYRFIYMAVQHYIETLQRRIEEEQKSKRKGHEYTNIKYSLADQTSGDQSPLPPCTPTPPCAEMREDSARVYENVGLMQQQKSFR

[18] = biological target: T6, Tyrosine-protein phosphatase non-receptor type 5 (Homo sapiens, UniProt P54829); assay: STEP phosphatase inhibitors, confirmation, biochemical, fluorescence intensity, uHTS hits (AID 602372); assay type: functional; conditions: read-out: IC50_Mean
T6 sequence (P54829 whole entry): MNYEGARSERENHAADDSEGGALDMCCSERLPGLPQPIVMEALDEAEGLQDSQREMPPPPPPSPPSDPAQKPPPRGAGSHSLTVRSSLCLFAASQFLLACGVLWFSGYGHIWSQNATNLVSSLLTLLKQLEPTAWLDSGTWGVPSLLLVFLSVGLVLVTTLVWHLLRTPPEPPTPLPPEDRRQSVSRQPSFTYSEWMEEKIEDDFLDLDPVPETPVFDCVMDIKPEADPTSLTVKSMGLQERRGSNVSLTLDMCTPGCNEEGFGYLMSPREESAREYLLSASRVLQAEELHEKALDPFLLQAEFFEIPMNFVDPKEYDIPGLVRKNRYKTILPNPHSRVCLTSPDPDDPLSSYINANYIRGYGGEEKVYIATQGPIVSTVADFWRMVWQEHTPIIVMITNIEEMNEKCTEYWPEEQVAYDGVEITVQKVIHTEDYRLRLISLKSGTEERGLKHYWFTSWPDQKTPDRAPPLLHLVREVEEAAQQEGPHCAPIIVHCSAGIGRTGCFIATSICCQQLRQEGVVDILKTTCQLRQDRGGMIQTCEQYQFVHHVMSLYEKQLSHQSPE

[19] = biological target: Dual specificity protein phosphatase 3 (Homo sapiens, UniProt P51452); assay: VHR phosphatase inhibition, dose response, selectivity assay for STEP inhibitor project, biochemical (AID 602374); assay type: functional; conditions: read-out: IC50_Mean
Sequence of Dual specificity protein phosphatase 3 (P51452 whole entry): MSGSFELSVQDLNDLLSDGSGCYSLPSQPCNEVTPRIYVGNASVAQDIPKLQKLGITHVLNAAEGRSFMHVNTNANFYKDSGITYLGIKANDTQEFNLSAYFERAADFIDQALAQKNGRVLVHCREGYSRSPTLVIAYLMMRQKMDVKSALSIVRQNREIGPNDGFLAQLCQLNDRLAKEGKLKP

[20] = inhibitors of intracellular T. cruzi replication, confirmation, NIH3T3 host cells, beta-gal luminescence (AID 2044); assay type: functional, cell-based;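 also: intracellular parasites grown in NIH/3T3 mouse fibroblasts as host cells; luminescent beta-galactosidase reporter signal from transgenic T. cruzi replicating inside host cells; inhibitors lower the luminescence signal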
[21] = cytotoxicity toward NIH3T3 fibroblasts, dose response, counter-screen, cell-based, ATP luminescence, mouse fibroblasts (AID 2010); assay type: functional;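 also: cells exposed to compound for about 90 hours before reading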

SMILES: CCN(CC)CC(=O)Nc1cc(N(C)C)nc2ccccc12
- AC50 [1]: 26.9 µM (active)

SMILES: COc1ccc(OCC(O)CN2CCC(CN3C(=O)c4cccc5cccc(c45)C3=O)CC2)cc1 (centres undefined)
- AC50 [2]: 8.15 µM (active)

SMILES: Cc1ccc2c(c1)c1nc3ccccc3nc1n2CCN1CCOCC1
- AC50 [1]: 16.6 µM (active)

SMILES: O=C1CCCN2N=C(SCC(=O)Nc3ccc(Br)cc3)SC2=N1
- EC50 [3]: > 350 µM (not active)
- EC50 [4]: > 350 µM (not active)
- EC50 [5]: > 260 µM (inactive)
- IC50 [6]: 71.6 µM (inactive)
- IC50 [7]: 12 µM (inactive)
- IC50 [8]: 35.9 µM (inactive)

SMILES: CC(C)N(CCNCC(O)COc1ccc(C(C)(C)c2ccccc2)cc1)C(C)C (centres undefined)
- CC50 [9]: 91.8 µM (active)
- IC50 [10]: 204 µM (active)

SMILES: COc1ccc(C(O)(CC(C)C)C(CN2CCOCC2)c2ccccc2)cc1 (centres undefined)
- EC50 [11]: 10.6 µM (active)
- EC50 [12]: > 120 µM (not active)
- EC50 [13]: 10.2 µM (active)
- AC50 [14]: 49 µM (active)
- AC50 [15]: 4.58 µM (active)

SMILES: CCn1c(=O)n(CC)c2cc(N3CCCC3)c(NC(=O)c3cccc(Cl)c3)cc21
- CC50 [9]: 100 µM (active)

SMILES: CCN1CCN(c2nc(Nc3ccc(NC(C)=O)cc3)nc(Nc3ccc(NC(C)=O)cc3)n2)CC1
- AC50 [2]: 6.27 µM (active)

SMILES: CCOc1ccc(NC(=O)CSc2nccn(-c3ccc4c(c3)OCCO4)c2=O)cc1
- IC50 [6]: 2.49 µM (active)
- IC50 [7]: 2.46 µM (active)
- IC50 [8]: 35.9 µM (inactive)

SMILES: CN1CCN(C(=S)c2ccc(Br)cc2)CC1
- IC50 [16]: > 80 µM (inactive)
- IC50 [17]: 1.51 µM (active)
- IC50 [18]: 30.8 µM (inactive)
- IC50 [19]: 1.14 µM (active)

SMILES: OCCN1CCN(c2ncnc3sc(-c4ccccc4)cc23)CC1
- EC50 [20]: 0.721 µM (active)
- EC50 [21]: > 60 µM (not active)
- AC50 [1]: 24.8 µM (active)

SMILES: Cn1cc(Cl)c(C(=O)OCC(=O)Nc2ccc(S(N)(=O)=O)cc2)n1
- IC50 [6]: 0.45 µM (active)
- IC50 [7]: 1.11 µM (active)
- IC50 [8]: 35.9 µM (inactive)

SMILES: C[C@@H]1CN([C@H](C)CO)C(=O)c2cc(-c3cncnc3)cnc2O[C@H]1CN(C)Cc1ccc(Oc2ccccc2)cc1
- AC50 [14]: 25.7 µM (active)

SMILES: Cc1cc(-c2ccccc2)nc(N/N=C/c2ccc(O)cc2)n1
- CC50 [9]: 87 µM (active)
- IC50 [10]: 18.2 µM (active)
